Test results taken from ChEMBL document CHEMBL1201862, “PubChem BioAssay data set” (2004).
Active and inactive are the calls of the source.

Tests used:
[1] = Luminescence Cell-Based Dose Retest to Confirm Inhibitors of Cancer Stem Cells. [Related pubchem assays (depositor defined):AID2717, AID2721]; format: functional; settings: Homo sapiens
[2] = Luminescence-based counterscreen assay for KLF5 inhibitors: dose response cell-based high throughput screening assay to identify cytotoxic compounds using the IEC-6 intestinal epithelial cell line. [Related pubchem assays: 1700 (Primary screen.), 1834 (Confirmation screen.), 1858 (Summary AID.), 1905 (Counterscreen.)]; format: functional
DLD-1 [3] = assay: reduction of KLF5 protein levels, late-stage follow-up, orthogonal assay for KLF5 inhibitor project, western blot, chemiluminescence, DLD-1 cells, titration (AID 485336); format: functional, cell-based; settings: Homo sapiens
DLD-1 [4] = assay: cytotoxicity in DLD-1 colorectal cells, late-stage follow-up, cytotoxicity control for KLF5 inhibitor project, cell-based, luminescence, round 1 (AID 485338); format: functional; settings: Homo sapiens
[5] = HEp-2 cell cytotoxicity, dose response, cytotoxicity control for RSV inhibitor project, HTS (AID 2410); format: functional; settings: human respiratory syncytial virus
[6] = target: Sphingosine 1-phosphate receptor 3 (Homo sapiens, UniProt Q99500); assay: (§1) Late-stage fluorescence-based dose-response cell-based assay to identify agonists of the Sphingosine 1-Phosphate Receptor 4 (S1P4): Sphingosine 1-Phosphate Receptor 3 (S1P3) counterscreen assay. [Related pubchem assays (depositor defined):AID1509, AID1523, AID1563, AID1686, AID1701, AID1801, AID463107, AID463225, AID504400]; format: functional
[7] = target: Sphingosine 1-phosphate receptor 5 (Homo sapiens, UniProt Q9H228); assay: as §1, with “5 (S1P5)” for “3 (S1P3)”; format: functional
[8] = target: Sphingosine 1-phosphate receptor 4 (Homo sapiens, UniProt O95977); assay: Fluorescence dose response cell-based high throughput screening assay for agonists of the Sphingosine 1-Phosphate Receptor 4 (S1P4). [Related pubchem assays: 1509 (Primary screen.), 1523 (Confirmation screen in triplicates.)]; format: functional
[9] = target: T1, Sphingosine 1-phosphate receptor 1 (Homo sapiens, UniProt P21453); assay: as §1, with “1 (S1P1)” for “3 (S1P3)”; format: functional
[10] = target: Sphingosine 1-phosphate receptor 2 (Homo sapiens, UniProt O95136); assay: as §1, with “2 (S1P2)” for “3 (S1P3)”; format: functional
[11] = target: T1, Sphingosine 1-phosphate receptor 1; assay: Fluorescence-based counterscreen assay for S1P4 agonists: Cell-based dose response high throughput screening assay to identify agonists of the Sphingosine 1-Phosphate Receptor 1 (S1P1). [Related pubchem assays (depositor defined):AID1509, AID1523, AID1801, AID463107, AID463118, AID463119, AID463122, AID463123, AID463129, AID463225, AID504400, AID504460]; format: functional
[12] = tested on: Streptococcus sp. 'group A'; assay: growth inhibition of control SK(-) GAS strain, dose response, counter-screen for streptokinase expression inhibitor project, luminescence, kanamycin, BacTiterGlo, confirmation (AID 1900); format: functional, organism-based
SUMO-activating enzyme [13] = target: T2, SUMO-activating enzyme (Homo sapiens, UniProt Q9UBT2); assay: inhibitors of in vitro SUMOylation cascade, primary screen, biochemical, HTRF, uHTS (AID 2006); format: protein-complex assay
[14] = growth suppression of PTEN-null colon cells, dose response, cell-based, HCT116 PTEN knockout (AID 1047); format: functional;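 also: HCT116 colon tumor cells with PTEN knocked out; cells exposed to compound for 60 hours before readout; potency for loss of cell viability measured by luminescence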
SUMO-activating enzyme [15] = target: T2, SUMO-activating enzyme; assay: SUMOylation inhibitor hit validation, confirmation, SUMOylation inhibitor project, biochemical, AlphaScreen (AID 2018); format: functional
[16] = target: T3, Carboxy-terminal domain RNA polymerase II polypeptide A small phosphatase 1 (Homo sapiens, UniProt Q9GZU7); assay: inhibitors of CTDSP1, concentration-response testing, biochemical assay, absorbance-based, actives from ultra-high-throughput screening (AID 540297); format: functional
T3 sequence (Q9GZU7 whole entry): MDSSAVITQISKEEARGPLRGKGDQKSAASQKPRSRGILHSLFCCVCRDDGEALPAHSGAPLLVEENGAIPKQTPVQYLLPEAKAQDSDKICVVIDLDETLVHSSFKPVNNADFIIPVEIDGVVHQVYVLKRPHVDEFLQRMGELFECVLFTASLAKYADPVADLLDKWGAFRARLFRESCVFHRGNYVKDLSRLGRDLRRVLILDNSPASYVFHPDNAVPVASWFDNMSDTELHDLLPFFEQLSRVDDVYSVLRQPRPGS

Streptococcus = assay: Group A Streptococcus viability loss, dose response, counter-screen for streptokinase expression inhibitor project, luminescence, BacTiterGlo (AID 1915); format: functional, organism-based;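 also: potency for reduction of bacterial viability or growth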
[17] = growth suppression of beta-catenin-knockout colon cells, dose response, cell-based, HCT116, human colon tumor (AID 1045); format: functional;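 also: HCT116 colon tumor cells with beta catenin knocked out; cells exposed to compound for 60 hours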
Streptokinase A = target: T4, Streptokinase A (Streptococcus pyogenes serotype M1, UniProt P10520); assay: S. pyogenes streptokinase expression inhibitors, potency, dose response, plasminogen activation absorbance, OD405 (AID 1914); format: functional, Streptococcus pyogenes M1 GAS;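 also: secreted streptokinase activity via plasminogen activation per viability signal from cell pellet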
T4 sequence (P10520 whole entry): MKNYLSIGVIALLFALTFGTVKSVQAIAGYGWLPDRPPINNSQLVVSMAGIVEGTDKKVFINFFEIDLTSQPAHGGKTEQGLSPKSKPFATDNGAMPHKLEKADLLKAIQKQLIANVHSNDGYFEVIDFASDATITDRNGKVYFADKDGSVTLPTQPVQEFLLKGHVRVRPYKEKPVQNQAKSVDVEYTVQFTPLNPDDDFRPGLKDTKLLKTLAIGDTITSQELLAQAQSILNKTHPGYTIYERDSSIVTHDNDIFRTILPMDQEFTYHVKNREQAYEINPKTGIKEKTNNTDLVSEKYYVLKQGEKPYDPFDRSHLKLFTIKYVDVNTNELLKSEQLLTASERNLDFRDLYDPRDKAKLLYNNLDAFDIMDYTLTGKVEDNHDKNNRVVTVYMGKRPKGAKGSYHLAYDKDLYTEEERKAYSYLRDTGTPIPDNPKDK

Cannabinoid receptor 2 [18] = target: T5, Cannabinoid receptor 2 (Homo sapiens, UniProt P34972); assay: SAR analysis of agonists of the Cannabinoid Receptor 2 using an Image-Based Assay. [Related pubchem assays (depositor defined):AID2013, AID2026]; format: functional
Cannabinoid receptor 1 [19] = target: T6, Cannabinoid receptor 1 (Homo sapiens, UniProt P21554); assay: SAR analysis of agonists of the Cannabinoid Receptor 1 using an Image-Based Assay - Set 2. [Related pubchem assays (depositor defined):AID2013, AID2026]; format: functional
[20] = target: T7, G-protein coupled receptor 55 (Homo sapiens, UniProt Q9Y2T6); assay: GPR55 antagonist potency of analogs, SAR follow-up, imaging, U2OS, beta-arrestin-GFP, LPI agonist, set 2 (AID 2820); format: functional
Cannabinoid receptor 1 [21] = target: T6, Cannabinoid receptor 1; assay: SAR analysis of antagonists of the Cannabinoid Receptor 1 using an Image-Based Assay - Set 2. [Related pubchem assays (depositor defined):AID2013, AID2026]; format: functional
[22] = target: T8, G-protein coupled receptor 35 (Homo sapiens, UniProt Q9HC97); assay: SAR analysis of Antagonists of the GPR35 Receptor using an Image-Based Assay - Set 3. [Related pubchem assays (depositor defined):AID2013, AID2026]; format: functional
[23] = target: T7, G-protein coupled receptor 55; assay: GPR55 antagonists blocking LPI-driven arrestin recruitment, primary screen, imaging, U2OS, beta-arrestin-GFP, LPI agonist (AID 2013); format: functional;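 also: antagonist potency measured as reduced agonist-driven arrestin aggregation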
[24] = target: T8, G-protein coupled receptor 35; assay: SAR analysis of Agonists of the GPR35 Receptor using an Image-Based Assay - Set 2. [Related pubchem assays (depositor defined):AID2013, AID2026]; format: functional
Cannabinoid receptor 2 [25] = target: T5, Cannabinoid receptor 2; assay: SAR analysis of antagonists of the Cannabinoid Receptor 2 using an Image-Based Assay. [Related pubchem assays (depositor defined):AID2013, AID2026]; format: functional
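For AC50 in this document: cells exposed to compound for roughly 70 hours or longer before luminescence read.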

T8 sequence (Q9HC97 whole entry): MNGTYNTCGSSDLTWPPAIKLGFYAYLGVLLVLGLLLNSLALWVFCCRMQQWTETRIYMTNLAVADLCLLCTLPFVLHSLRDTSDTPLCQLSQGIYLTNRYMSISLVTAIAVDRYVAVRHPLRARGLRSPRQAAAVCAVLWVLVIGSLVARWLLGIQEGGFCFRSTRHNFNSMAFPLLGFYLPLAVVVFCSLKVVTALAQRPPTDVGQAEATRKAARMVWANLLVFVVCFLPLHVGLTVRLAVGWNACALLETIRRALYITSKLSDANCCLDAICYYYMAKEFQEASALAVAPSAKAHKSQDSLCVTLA
T1 sequence (P21453 whole entry): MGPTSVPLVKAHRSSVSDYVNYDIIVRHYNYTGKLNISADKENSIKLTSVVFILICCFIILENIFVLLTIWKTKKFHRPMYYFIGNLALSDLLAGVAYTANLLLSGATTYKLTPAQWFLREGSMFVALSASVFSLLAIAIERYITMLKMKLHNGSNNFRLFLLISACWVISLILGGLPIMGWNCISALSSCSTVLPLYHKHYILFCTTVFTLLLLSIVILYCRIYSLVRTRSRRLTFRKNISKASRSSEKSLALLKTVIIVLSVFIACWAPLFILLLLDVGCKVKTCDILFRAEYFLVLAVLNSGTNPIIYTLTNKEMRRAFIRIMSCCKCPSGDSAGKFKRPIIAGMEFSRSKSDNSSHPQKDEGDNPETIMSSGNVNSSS
T2 sequence (Q9UBE0 whole entry): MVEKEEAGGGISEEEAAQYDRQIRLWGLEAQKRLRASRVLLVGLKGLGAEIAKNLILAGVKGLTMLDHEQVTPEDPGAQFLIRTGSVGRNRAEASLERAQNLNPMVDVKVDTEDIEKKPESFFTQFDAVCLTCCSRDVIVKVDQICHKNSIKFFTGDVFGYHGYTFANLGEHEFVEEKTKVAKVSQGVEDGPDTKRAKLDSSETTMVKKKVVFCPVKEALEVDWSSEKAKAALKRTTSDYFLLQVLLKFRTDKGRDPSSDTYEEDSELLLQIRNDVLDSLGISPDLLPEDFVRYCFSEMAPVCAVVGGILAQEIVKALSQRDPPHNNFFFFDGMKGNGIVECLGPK
T2 sequence (Q9UBT2 whole entry): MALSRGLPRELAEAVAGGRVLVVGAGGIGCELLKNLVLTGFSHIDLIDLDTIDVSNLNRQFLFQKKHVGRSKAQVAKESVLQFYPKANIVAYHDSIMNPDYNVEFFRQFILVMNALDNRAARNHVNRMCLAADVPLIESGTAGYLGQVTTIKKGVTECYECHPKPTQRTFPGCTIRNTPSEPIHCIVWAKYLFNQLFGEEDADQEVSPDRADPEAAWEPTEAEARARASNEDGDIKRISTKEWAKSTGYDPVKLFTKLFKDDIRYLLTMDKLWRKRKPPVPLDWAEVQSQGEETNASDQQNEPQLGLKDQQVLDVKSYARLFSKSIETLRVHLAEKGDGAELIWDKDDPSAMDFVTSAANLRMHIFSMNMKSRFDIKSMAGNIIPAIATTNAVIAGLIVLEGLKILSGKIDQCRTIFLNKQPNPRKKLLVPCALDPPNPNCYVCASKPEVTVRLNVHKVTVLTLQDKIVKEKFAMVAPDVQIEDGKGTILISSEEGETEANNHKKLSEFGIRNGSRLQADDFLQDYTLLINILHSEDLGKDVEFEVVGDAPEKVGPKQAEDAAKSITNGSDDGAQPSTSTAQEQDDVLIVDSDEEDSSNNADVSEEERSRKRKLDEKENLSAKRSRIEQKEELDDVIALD
T5 sequence (P34972 whole entry): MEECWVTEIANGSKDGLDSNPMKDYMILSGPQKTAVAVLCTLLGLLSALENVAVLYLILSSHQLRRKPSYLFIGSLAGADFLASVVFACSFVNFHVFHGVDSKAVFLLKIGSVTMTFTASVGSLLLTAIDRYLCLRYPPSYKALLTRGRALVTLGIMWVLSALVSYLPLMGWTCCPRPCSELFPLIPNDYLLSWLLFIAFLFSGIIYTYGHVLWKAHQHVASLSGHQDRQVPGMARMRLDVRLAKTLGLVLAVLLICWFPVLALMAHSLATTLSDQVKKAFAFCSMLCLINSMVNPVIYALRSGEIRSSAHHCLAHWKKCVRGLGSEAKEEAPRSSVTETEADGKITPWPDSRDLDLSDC
T6 sequence (P21554 whole entry): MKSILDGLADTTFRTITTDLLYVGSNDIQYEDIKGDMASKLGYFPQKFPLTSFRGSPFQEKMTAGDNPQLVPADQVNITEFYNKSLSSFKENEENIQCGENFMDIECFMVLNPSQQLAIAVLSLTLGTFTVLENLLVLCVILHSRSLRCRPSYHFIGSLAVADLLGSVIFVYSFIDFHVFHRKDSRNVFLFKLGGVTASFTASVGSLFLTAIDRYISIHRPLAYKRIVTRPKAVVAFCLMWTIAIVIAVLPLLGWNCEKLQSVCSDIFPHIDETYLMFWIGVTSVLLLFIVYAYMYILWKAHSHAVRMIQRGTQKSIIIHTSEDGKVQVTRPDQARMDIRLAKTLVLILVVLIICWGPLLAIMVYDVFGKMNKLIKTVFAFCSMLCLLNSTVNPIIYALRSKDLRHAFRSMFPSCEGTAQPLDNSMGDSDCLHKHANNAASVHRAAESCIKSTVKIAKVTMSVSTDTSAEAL
T7 sequence (Q9Y2T6 whole entry): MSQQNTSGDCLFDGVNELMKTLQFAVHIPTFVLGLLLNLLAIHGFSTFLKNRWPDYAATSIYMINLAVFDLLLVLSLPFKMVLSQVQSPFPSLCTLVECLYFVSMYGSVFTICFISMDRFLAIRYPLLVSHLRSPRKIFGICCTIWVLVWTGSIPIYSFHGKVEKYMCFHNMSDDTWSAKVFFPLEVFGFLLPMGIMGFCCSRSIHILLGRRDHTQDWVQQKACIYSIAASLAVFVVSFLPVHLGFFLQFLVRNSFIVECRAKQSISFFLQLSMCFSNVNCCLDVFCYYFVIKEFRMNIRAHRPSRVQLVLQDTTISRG
Sequence of Sphingosine 1-phosphate receptor 3 (Q99500 whole entry): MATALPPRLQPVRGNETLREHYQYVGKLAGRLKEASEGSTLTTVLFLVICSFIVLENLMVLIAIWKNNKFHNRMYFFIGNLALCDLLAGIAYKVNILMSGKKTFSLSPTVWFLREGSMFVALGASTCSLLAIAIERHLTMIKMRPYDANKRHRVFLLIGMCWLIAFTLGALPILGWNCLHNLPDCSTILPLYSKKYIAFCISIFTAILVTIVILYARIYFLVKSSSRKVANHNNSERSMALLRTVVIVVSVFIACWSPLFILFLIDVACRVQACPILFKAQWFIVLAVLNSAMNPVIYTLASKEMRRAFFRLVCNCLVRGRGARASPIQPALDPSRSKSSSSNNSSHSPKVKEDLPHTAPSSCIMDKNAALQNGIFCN
Sequence of Sphingosine 1-phosphate receptor 4 (O95977 whole entry): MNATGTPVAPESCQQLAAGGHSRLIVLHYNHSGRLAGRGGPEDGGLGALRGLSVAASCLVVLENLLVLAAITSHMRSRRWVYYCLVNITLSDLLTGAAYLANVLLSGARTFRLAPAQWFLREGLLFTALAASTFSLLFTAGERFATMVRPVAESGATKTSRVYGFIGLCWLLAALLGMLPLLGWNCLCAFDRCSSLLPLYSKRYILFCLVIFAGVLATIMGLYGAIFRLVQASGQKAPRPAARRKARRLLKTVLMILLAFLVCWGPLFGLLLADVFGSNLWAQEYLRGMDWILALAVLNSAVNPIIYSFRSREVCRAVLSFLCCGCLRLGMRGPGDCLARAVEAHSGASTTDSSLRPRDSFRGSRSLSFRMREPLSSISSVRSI
Sequence of Sphingosine 1-phosphate receptor 5 (Q9H228 whole entry): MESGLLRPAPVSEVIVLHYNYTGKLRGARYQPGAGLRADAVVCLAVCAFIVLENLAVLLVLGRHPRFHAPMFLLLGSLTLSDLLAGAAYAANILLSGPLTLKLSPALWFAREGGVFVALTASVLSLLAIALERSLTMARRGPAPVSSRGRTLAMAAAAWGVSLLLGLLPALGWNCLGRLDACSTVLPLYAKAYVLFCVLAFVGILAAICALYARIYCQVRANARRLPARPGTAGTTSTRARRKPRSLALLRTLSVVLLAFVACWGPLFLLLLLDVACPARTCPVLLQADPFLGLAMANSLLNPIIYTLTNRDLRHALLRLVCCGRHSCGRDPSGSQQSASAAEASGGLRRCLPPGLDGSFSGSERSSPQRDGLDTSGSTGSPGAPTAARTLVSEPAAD
Sequence of Sphingosine 1-phosphate receptor 2 (O95136 whole entry): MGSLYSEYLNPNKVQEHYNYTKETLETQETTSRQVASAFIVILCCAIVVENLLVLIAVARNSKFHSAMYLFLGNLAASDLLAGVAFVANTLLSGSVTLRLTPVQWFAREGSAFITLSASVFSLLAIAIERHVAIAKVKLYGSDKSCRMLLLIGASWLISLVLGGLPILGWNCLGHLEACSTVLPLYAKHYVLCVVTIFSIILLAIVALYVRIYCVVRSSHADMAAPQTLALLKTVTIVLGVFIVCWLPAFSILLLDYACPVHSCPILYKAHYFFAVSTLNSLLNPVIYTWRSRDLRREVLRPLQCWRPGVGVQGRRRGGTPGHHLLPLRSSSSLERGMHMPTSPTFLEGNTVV

CN(C(=O)COC(=O)/C=C/c1cccc([N+](=O)[O-])c1)C1CCS(=O)(=O)C1 (configuration not stated)
AC50 [1]: 1.43 µM (active) | IC50 [2]: 32.3 µM (not active) | IC50 (DLD-1 [3]): 2.25 µM (active) | IC50 (DLD-1 [4]): 3.57 µM (active) | CC50 [5]: 11.4 µM (active)

Cc1ccc(OCCOc2ccc(Cl)cc2Cl)c([N+](=O)[O-])n1
EC50 [6]: > 50 µM (inactive) | EC50 [7]: > 50 µM (inactive) | EC50 [8]: 0.529 µM (active) | EC50 [9]: > 50 µM (inactive) | EC50 [10]: > 50 µM (inactive) | EC50 [11]: > 49.8 µM (inactive)

COc1ccccc1-n1cnc2c(c1=O)c1nc3ccccc3nc1n2-c1ccc(C)c(C)c1
EC50 [12]: 11.2 µM (active) | IC50 (SUMO-activating enzyme [13]): 15.4 µM (active) | EC50 [14]: 19.2 µM (active) | IC50 (SUMO-activating enzyme [15]): 5.24 µM (active) | IC50 [16]: 7.53 µM (active) | EC50 (Streptococcus): 59 µM (active) | EC50 [17]: 20.2 µM (active) | EC50 (Streptokinase A): > 150 µM (not active)

Cc1cccn2c(=O)c3cc(C(=O)NC4CCCC4)c(=N)n(C4CCCC4)c3nc12
EC50 (Cannabinoid receptor 2 [18]): > 32 µM (inactive) | EC50 (Cannabinoid receptor 1 [19]): > 32 µM (inactive) | IC50 [20]: 0.965 µM (active) | IC50 (Cannabinoid receptor 1 [21]): > 32 µM (inactive) | IC50 [22]: > 32 µM (inactive) | IC50 [23]: 1.24 µM (active) | EC50 [24]: > 32 µM (inactive) | IC50 (Cannabinoid receptor 2 [25]): > 32 µM (inactive)
